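Protocol summary: plate cells (96-well), add compound at 5 concentrations, incubate 48 h, interpolate endpoints linearly. The concentration for 50% growth inhibition is given as GI50. TGI denotes the concentration required for complete inhibition of growth.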
Tests used:
Experiment in all cases: inhibition of tumour cell growth, NCI panel, 48 h
786-0 renal = system: 786-0 renal
A498 renal = system: A498 renal
A549 NSCLC = system: A549 NSCLC
ACHN renal = system: ACHN renal
BT-549 breast = system: BT-549 breast
CAKI-1 renal = system: CAKI-1 renal
CCRF-CEM leukemia = system: CCRF-CEM leukemia
COLO 205 colon = system: COLO 205 colon
DU-145 prostate = system: DU-145 prostate
EKVX NSCLC = system: EKVX NSCLC
HCC-2998 colon = system: HCC-2998 colon
HCT-116 colon = system: HCT-116 colon
HCT-15 colon = system: HCT-15 colon
HL-60(TB) leukemia = system: HL-60(TB) leukemia
HOP-62 NSCLC = system: HOP-62 NSCLC
HOP-92 NSCLC = system: HOP-92 NSCLC
HS 578T breast = system: HS 578T breast
HT29 colon = system: HT29 colon
IGROV1 ovarian = system: IGROV1 ovarian
K-562 leukemia = system: K-562 leukemia
KM12 colon = system: KM12 colon
LOX IMVI melanoma = system: LOX IMVI melanoma
M14 melanoma = system: M14 melanoma
MALME-3M melanoma = system: MALME-3M melanoma
MCF7 breast = system: MCF7 breast
MDA-MB-231 breast = system: MDA-MB-231 breast
MDA-MB-435 = system: MDA-MB-435
MOLT-4 leukemia = system: MOLT-4 leukemia
NCI-H226 lung = system: NCI-H226 lung
NCI-H23 lung = system: NCI-H23 lung
NCI-H460 lung = system: NCI-H460 lung
NCI-H522 lung = system: NCI-H522 lung
NCI/ADR-RES ovarian = system: NCI/ADR-RES ovarian
OVCAR-3 ovarian = system: OVCAR-3 ovarian
OVCAR-4 ovarian = system: OVCAR-4 ovarian
OVCAR-5 ovarian = system: OVCAR-5 ovarian
OVCAR-8 ovarian = system: OVCAR-8 ovarian
PC-3 prostate = system: PC-3 prostate
RPMI-8226 leukemia = system: RPMI-8226 leukemia
RXF 393 renal = system: RXF 393 renal
SF-268 CNS = system: SF-268 CNS
SF-295 CNS = system: SF-295 CNS
SF-539 CNS = system: SF-539 CNS
SK-MEL-2 melanoma = system: SK-MEL-2 melanoma
SK-MEL-28 melanoma = system: SK-MEL-28 melanoma
SK-MEL-5 melanoma = system: SK-MEL-5 melanoma
SK-OV-3 ovarian = system: SK-OV-3 ovarian
SN12C renal = system: SN12C renal
SNB-19 CNS = system: SNB-19 CNS
SNB-75 CNS = system: SNB-75 CNS
SR leukemia = system: SR leukemia
SW-620 colon = system: SW-620 colon
T-47D breast = system: T-47D breast
TK-10 renal = system: TK-10 renal
U251 CNS = system: U251 CNS
UACC-257 melanoma = system: UACC-257 melanoma
UACC-62 melanoma = system: UACC-62 melanoma
UO-31 renal = system: UO-31 renal
MDA-N = system: MDA-N

SMILES: CN(C)CCCNC1=C(Cl)C(=O)c2ccccc2C1=O
- GI50 (786-0 renal): 11.3 µM
- TGI (786-0 renal): 24.2 µM
- GI50 (A498 renal): 12.7 µM
- TGI (A498 renal): 25.4 µM
- GI50 (A549 NSCLC): 16.1 µM
- TGI (A549 NSCLC): 32.5 µM
- GI50 (ACHN renal): 4.96 µM
- TGI (ACHN renal): 9.51 µM
- GI50 (BT-549 breast): 2.14 µM
- TGI (BT-549 breast): 4.96 µM
- GI50 (CAKI-1 renal): 7.14 µM
- TGI (CAKI-1 renal): 20.7 µM
- GI50 (CCRF-CEM leukemia): 3.9 µM
- TGI (CCRF-CEM leukemia): 14.4 µM
- GI50 (COLO 205 colon): 1.9 µM
- TGI (COLO 205 colon): 3.45 µM
- GI50 (DU-145 prostate): 1.92 µM
- TGI (DU-145 prostate): 3.64 µM
- GI50 (EKVX NSCLC): 1.72 µM
- TGI (EKVX NSCLC): 3.41 µM
- GI50 (HCC-2998 colon): 1.96 µM
- TGI (HCC-2998 colon): 3.45 µM
- GI50 (HCT-116 colon): 2.28 µM
- TGI (HCT-116 colon): 6.04 µM
- GI50 (HCT-15 colon): 1.76 µM
- TGI (HCT-15 colon): 4.09 µM
- GI50 (HL-60(TB) leukemia): 2.54 µM
- TGI (HL-60(TB) leukemia): 5.84 µM
- GI50 (HOP-62 NSCLC): 6.23 µM
- TGI (HOP-62 NSCLC): 17.5 µM
- GI50 (HOP-92 NSCLC): 2.86 µM
- TGI (HOP-92 NSCLC): 12.3 µM
- GI50 (HS 578T breast): 2.2 µM
- TGI (HS 578T breast): 7.02 µM
- GI50 (HT29 colon): 2.5 µM
- TGI (HT29 colon): 5.25 µM
- GI50 (IGROV1 ovarian): 2.01 µM
- TGI (IGROV1 ovarian): 4.12 µM
- GI50 (K-562 leukemia): 2.47 µM
- TGI (K-562 leukemia): 6.03 µM
- GI50 (KM12 colon): 5.93 µM
- TGI (KM12 colon): 19.3 µM
- GI50 (LOX IMVI melanoma): 1.61 µM
- TGI (LOX IMVI melanoma): 3.17 µM
- GI50 (M14 melanoma): 1.83 µM
- TGI (M14 melanoma): 3.38 µM
- GI50 (MALME-3M melanoma): 2.06 µM
- TGI (MALME-3M melanoma): 3.77 µM
- GI50 (MCF7 breast): 1.61 µM
- TGI (MCF7 breast): 3.53 µM
- GI50 (MDA-MB-231 breast): 1.79 µM
- TGI (MDA-MB-231 breast): 3.94 µM
- GI50 (MDA-MB-435): 1.9 µM
- TGI (MDA-MB-435): 3.64 µM
- GI50 (MOLT-4 leukemia): 3.02 µM
- TGI (MOLT-4 leukemia): 8.27 µM
- GI50 (NCI-H226 lung): 5.38 µM
- TGI (NCI-H226 lung): 10.6 µM
- GI50 (NCI-H23 lung): 1.74 µM
- TGI (NCI-H23 lung): 3.87 µM
- GI50 (NCI-H460 lung): 8.61 µM
- TGI (NCI-H460 lung): 25.2 µM
- GI50 (NCI-H522 lung): 2.03 µM
- TGI (NCI-H522 lung): 3.83 µM
- GI50 (NCI/ADR-RES ovarian): 7.93 µM
- TGI (NCI/ADR-RES ovarian): 31.8 µM
- GI50 (OVCAR-3 ovarian): 1.69 µM
- TGI (OVCAR-3 ovarian): 3.17 µM
- GI50 (OVCAR-4 ovarian): 1.62 µM
- TGI (OVCAR-4 ovarian): 2.98 µM
- GI50 (OVCAR-5 ovarian): 4.27 µM
- TGI (OVCAR-5 ovarian): 9.63 µM
- GI50 (OVCAR-8 ovarian): 2.08 µM
- TGI (OVCAR-8 ovarian): 4.39 µM
- GI50 (PC-3 prostate): 3.12 µM
- TGI (PC-3 prostate): 13.2 µM
- GI50 (RPMI-8226 leukemia): 4.25 µM
- TGI (RPMI-8226 leukemia): 21.4 µM
- GI50 (RXF 393 renal): 1.69 µM
- TGI (RXF 393 renal): 3.14 µM
- GI50 (SF-268 CNS): 4.88 µM
- GI50 (SF-295 CNS): 7.23 µM
- TGI (SF-295 CNS): 21.4 µM
- GI50 (SF-539 CNS): 12.8 µM
- TGI (SF-539 CNS): 27 µM
- GI50 (SK-MEL-2 melanoma): 2.11 µM
- TGI (SK-MEL-2 melanoma): 4.15 µM
- GI50 (SK-MEL-28 melanoma): 1.88 µM
- TGI (SK-MEL-28 melanoma): 3.41 µM
- GI50 (SK-MEL-5 melanoma): 1.6 µM
- TGI (SK-MEL-5 melanoma): 2.96 µM
- GI50 (SK-OV-3 ovarian): 15 µM
- TGI (SK-OV-3 ovarian): 28.3 µM
- GI50 (SN12C renal): 1.62 µM
- TGI (SN12C renal): 3.12 µM
- GI50 (SNB-19 CNS): 1.76 µM
- TGI (SNB-19 CNS): 3.28 µM
- GI50 (SNB-75 CNS): 1.36 µM
- TGI (SNB-75 CNS): 2.67 µM
- GI50 (SR leukemia): 2.8 µM
- TGI (SR leukemia): 7.61 µM
- GI50 (SW-620 colon): 1.69 µM
- TGI (SW-620 colon): 3.42 µM
- GI50 (T-47D breast): 2.94 µM
- TGI (T-47D breast): 9.33 µM
- GI50 (TK-10 renal): 15.4 µM
- TGI (TK-10 renal): 29 µM
- GI50 (U251 CNS): 1.83 µM
- TGI (U251 CNS): 3.27 µM
- GI50 (UACC-257 melanoma): 1.82 µM
- TGI (UACC-257 melanoma): 3.25 µM
- GI50 (UACC-62 melanoma): 1.7 µM
- TGI (UACC-62 melanoma): 3.19 µM
- GI50 (UO-31 renal): 12.4 µM
- TGI (UO-31 renal): 27 µM

SMILES: NC1CC(=O)c2cscc21 (stereo not drawn)
- TGI (786-0 renal): 28.4 µM
- TGI (A549 NSCLC): 41.7 µM
- TGI (BT-549 breast): > 100 µM
- TGI (CAKI-1 renal): 29.3 µM
- TGI (CCRF-CEM leukemia): 38.2 µM
- TGI (COLO 205 colon): 52 µM
- TGI (DU-145 prostate): > 100 µM
- TGI (EKVX NSCLC): > 100 µM
- TGI (HCT-116 colon): > 100 µM
- TGI (HCT-15 colon): 88.5 µM
- TGI (HL-60(TB) leukemia): 33.3 µM
- TGI (HOP-62 NSCLC): > 100 µM
- TGI (HOP-92 NSCLC): 49.6 µM
- TGI (HT29 colon): > 100 µM
- TGI (IGROV1 ovarian): > 100 µM
- TGI (K-562 leukemia): > 100 µM
- TGI (KM12 colon): 43.1 µM
- TGI (LOX IMVI melanoma): > 100 µM
- TGI (M14 melanoma): > 100 µM
- TGI (MDA-MB-231 breast): > 100 µM
- TGI (MDA-MB-435): 64.2 µM
- TGI (MDA-N): > 100 µM
- TGI (MOLT-4 leukemia): > 100 µM
- TGI (NCI-H23 lung): > 100 µM
- TGI (NCI-H460 lung): > 100 µM
- TGI (NCI/ADR-RES ovarian): > 100 µM
- TGI (OVCAR-3 ovarian): 34.8 µM
- TGI (OVCAR-4 ovarian): > 100 µM
- TGI (OVCAR-5 ovarian): > 100 µM
- TGI (OVCAR-8 ovarian): > 100 µM
- TGI (PC-3 prostate): > 100 µM
- TGI (RPMI-8226 leukemia): > 100 µM
- TGI (RXF 393 renal): > 100 µM
- TGI (SF-295 CNS): > 100 µM
- TGI (SF-539 CNS): > 100 µM
- TGI (SK-MEL-2 melanoma): > 100 µM
- TGI (SK-MEL-28 melanoma): > 100 µM
- TGI (SK-MEL-5 melanoma): > 100 µM
- TGI (SK-OV-3 ovarian): > 100 µM
- TGI (SN12C renal): > 100 µM
- TGI (SNB-19 CNS): > 100 µM
- TGI (SNB-75 CNS): > 100 µM
- TGI (SW-620 colon): 37.4 µM
- TGI (T-47D breast): 40.3 µM
- TGI (TK-10 renal): 33.6 µM
- TGI (U251 CNS): > 100 µM
- TGI (UACC-257 melanoma): > 100 µM
- TGI (UO-31 renal): 22.1 µM
